Values quoted from earlier work, collected in patent publication US20150320675A1, “Modified Release Osmotic Pump for PH-Responsive Drug Delivery” (UNIVERSITY OF UTAH RESEARCH FOUNDATION, priority 2013, published 2015).

Tests used:
[1] = target: reverse transcriptase (Human immunodeficiency virus type 1 group M subtype B, UniProt P04585)
[2] = system: entry

In the case of `Cc1cc(C)cc(C(=O)c2c(C(C)C)c(=O)[nH]c(=O)n2CC2CC2)c1` [IQP-0528, 1-(cyclopropylmethyl)-6-(3,5-dimethylbenzoyl)-5-isopropylpyrimidine-2,4(1H,3H)-dione], the “non-nucleoside reverse transcriptase inhibition activity” value [1] is listed as “potent nanomolar” and the entry inhibition activity [2] is listed as “potent nanomolar”.
